Reference: patent EP0482594A1, “Tylosin derivative and method for preparing the same” (MERCIAN CORPORATION, priority 1990, dated 1992)
≈ marks a conversion by molar mass, not a printed value. Read-outs that look alike come from different tables or passages of the source.

Tests used:
mouse bone marrow cells = experiment: Inhibition of the colony formation of mouse bone marrow cells; type: cell-based; settings: for Number of colonies Average: 1.0 μg/ml (control average 75.3); for Number of colonies 1: count 1 (control 95); for Number of colonies 2: count 2 (control 66); for activity at 1 µg/mL: Mus musculus, Bone marrow cell
[1] = Stability test using mouse liver homogenate; type: in vitro ADME, ICR mouse; settings: for Remaining unhydrolyzed substance (%): after being treated with liver homogenate for 60 minutes at 37 C
Experimental: A liver in collected from an ICR mouse was homogenized by a Potter homogenizer in five times volume of 0.1 M phosphate buffer solution (pH 7.2), and supernatant was obtained by centrifuging the homogenate at 3000 rpm for 10 minutes. To 2 ml of the supernatant obtained above, 2 ml of sample solution containing 500 µg/ml of test compound in 20% aqueous methanol and 1 ml of 0.1 M phosphate buffer solution were added, and the mixture was incubated at 37 ^0 c for 60 minutes and then 1 ml of the mixture was heated at 85 ° C for 3 minutes. The reaction mixture was adjusted to pH 9.0 by adding 1 N NaOH and extracted with 1 ml of ethyl acetate.

[2] = system: Mouse leukemia L1210 cells; experiment: Inhibitory activity on the growth of L1210 cells; type: cell-based; settings: for IC50: L1210 cell growth
Experimental: Mouse leukemia L1210 cells were cultured in RPM11640 medium (Gifco) containing 10% horse serum (Gifco) at 37°C under 5% carbon dioxide gas so that the leukemia cells were contained in the amount of 5 x 10^4 cells/ml, and the cells were subjected to passage culture every two or three days to maintain the cell density of 5 x 10^4 cells/ml. The diluted sample solution (0.1 ml) was added to each well of a 24-well plate which contained 0.9 ml of the cultured L1210 cells, and the mixture was incubated at 37 ° C for 48 hours under 5% carbon dioxide gas. The sample solution mentioned above was prepared by dissolving a weighed test compound in dimethyl sulfoxide (DMSO) at the concentration of 100 mg/ml and then diluting the solution with distilled water so that the concentration became 10 mg/ml. The resulting aqueous solution was diluted with phosphate buffer solution to obtain a sample solution at a desired concentration. After incubation, the cell numbers in each well were counted and inhibitory activity on cell growth (ICso) was calculated.

[3] = system: Staphylococcus aureus Smith; experiment: Antibacterial activity, agar-dilution method (Mueller Hinton agar); type: cell-based; settings: for MIC: read-out: minimum inhibitory concentrations (MICs)
Experimental: (§1) Antibacterial activity of the tylosin derivative of the present invention was determined by the agar- dilution method using a Mueller Hinton agar medium (Difco). The results obtained are summarized in Table 1 in which minimum inhibitory concentrations (MICs, ug/ml) are shown. Hereinafter in the specification, Compound A (the compound described in Example 3) is defined as being 4"-O-[(S)-(+)-p-methoxymandeloyl]tylosin represented by the following formula: [drawing 3] wherein R is the same as that defined above; Compound B (the compound described in Example 2) is defined as being 4"-O-[(R)-(-)-p-methoxymandeloyl]tylosin represented by the following formula: [drawing 4] wherein R is the same as that defined above; XV represents 4"-O-[p-methoxyphenylacetyl]tylosin; RKM represents rokitamycin; and EM represents erythromycin.

[4] = system: Bacillus subtilis ATCC 6633; experiment: as above; type: cell-based
Experimental: as §1

[5] = system: Staphylococcus epidermidis ATCC 12228; experiment: as above; type: cell-based; settings: for minimum inhibitory concentrations (MICs): Staphylococcus epidermidis ATCC 12228; for MIC: Staphylococcus epidermidis
Experimental: as §1

Escherichia coli K12 = experiment: as above; type: cell-based; settings: for MIC: read-out: minimum inhibitory concentrations (MICs)
Experimental: as §1

[6] = system: Staphylococcus aureus 209P; experiment: as above; type: cell-based; settings: for MIC: read-out: minimum inhibitory concentrations (MICs)
Experimental: as §1

ML-resistant strain = experiment: as above; type: cell-based, Staphylococcus aureus; settings: macrolide resistant strain; for MIC: Staphylococcus aureus, read-out: minimum inhibitory concentrations (MICs)
Experimental: as §1

[7] = 1.0 μg/ml, relative to control = 100
[8] = ATCC6633, Bacillus subtilis ATCC 6633, read-out: minimum inhibitory concentrations (MICs)
[9] = ATCC12228, Staphylococcus epidermidis ATCC 12228, read-out: minimum inhibitory concentrations (MICs)

Compound	Number of colonies Average (mouse bone marrow cells)	Number of colonies 1 (mouse bone marrow cells; 1.0 μg/ml)	Inhibitory activity on cell growth (%) ([2]; 1 μg/ml, 48 hours)	Inhibitory activity on cell growth (%) ([2]; 3 μg/ml, 48 hours)	Inhibitory activity on cell growth (%) ([2]; 10 μg/ml, 48 hours)	Inhibitory activity on cell growth (%) ([2]; 30 μg/ml, 48 hours)	Inhibitory activity on cell growth (%) ([2]; 100 μg/ml, 48 hours)	IC50 ([2]; 48 hours) [µg/mL]	minimum inhibitory concentrations (MICs) ([3]; Staphylococcus aureus Smith) [µg/mL]	minimum inhibitory concentrations (MICs) ([4]; Bacillus subtilis ATCC 6633) [µg/mL]	minimum inhibitory concentrations (MICs) [5] [µg/mL]	minimum inhibitory concentrations (MICs) (Escherichia coli K12) [µg/mL]	minimum inhibitory concentrations (MICs) ([6]; Staphylococcus aureus 209P) [µg/mL]	minimum inhibitory concentrations (MICs) (ML-resistant strain; 1st listed (Table 1 r5)) [µg/mL]	minimum inhibitory concentrations (MICs) (ML-resistant strain; 5th listed (Table 1 r9)) [µg/mL]	MIC (Escherichia coli K12) [µg/mL]	MIC (ML-resistant strain; 1st listed (Table 1 r5)) [µg/mL]	MIC (ML-resistant strain; 2nd listed (Table 1 r6)) [µg/mL]	MIC (ML-resistant strain; 3rd listed (Table 1 r7)) [µg/mL]	MIC (ML-resistant strain; 4th listed (Table 1 r8)) [µg/mL]	also measured
4"-O-[p-methoxyphenylacetyl]tylosin [XV]	13.0	13	12.22	31.18	82.87	90.45	93.68	5.01	1.56	0.39	0.78	> 100	0.20	6.25	1.56	–	–	–	–	–	Colony formation (%) (mouse bone marrow cells; [7]): 17.3%; Remaining unhydrolyzed substance (%) [1]: 92.8%; minimum inhibitory concentrations (MICs) (ML-resistant strain; 2nd listed (Table 1 r6)): 0.78 µg/mL; minimum inhibitory concentrations (MICs) (ML-resistant strain; 3rd listed (Table 1 r7)): 3.13 µg/mL; minimum inhibitory concentrations (MICs) (ML-resistant strain; 4th listed (Table 1 r8)): 0.39 µg/mL
CCC1OC(=O)CC(O)C(C)C(OC2OC(C)C(OC3CC(C)(O)C(OC(=O)C(O)c4ccc(OC)cc4)C(C)O3)C(N(C)C)C2O)C(CC=O)CC(C)C(=O)C=CC(C)=CC1COC1OC(C)C(O)C(OC)C1OC [Compound A, 4"-O-[(S)-(+)-p-methoxymandeloyl]tylosin]	31.0	32	–	–	5.62	–	–	–	–	–	–	–	–	–	6.25 (≈ 5.79 µM)	> 100	6.25 (≈ 5.79 µM)	0.39 (≈ 0.361 µM)	6.25 (≈ 5.79 µM)	< 0.2	Number of colonies 2 (mouse bone marrow cells; 1.0 μg/ml): 30; activity at 1 µg/mL (mouse bone marrow cells; [7]): 41.2%; remaining at 1 h ([1]; mouse, liver homogenate, pH 7.2, after being treated with liver homogenate for 60 minutes at 37 C, read-out: Remaining unhydrolyzed substance (%)): 97.8%; inhibition at 1 µg/mL ([2]; Mus musculus, L1210, 48 h, 1 μg/ml, read-out: Inhibitory activity on cell growth (%)): 0%; inhibition at 3 µg/mL ([2]; Mus musculus, L1210, 48 h, 3 μg/ml, read-out: Inhibitory activity on cell growth (%)): 0%; inhibition at 30 µg/mL ([2]; Mus musculus, L1210, 48 h, 30 μg/ml, read-out: Inhibitory activity on cell growth (%)): 47.8%; inhibition at 100 µg/mL ([2]; Mus musculus, L1210, 48 h, 100 μg/ml, read-out: Inhibitory activity on cell growth (%)): 88.8%; IC50 ([2]; Mus musculus, L1210, 48 h, read-out: IC50): 36.6 µg/mL (≈ 33.9 µM); MIC ([3]; Staphylococcus aureus Smith): 1.56 µg/mL (≈ 1.44 µM); MIC [4, 8]: 0.39 µg/mL (≈ 0.361 µM); MIC [5, 9]: 0.39 µg/mL (≈ 0.361 µM); MIC ([6]; Staphylococcus aureus 209P): 0.39 µg/mL (≈ 0.361 µM)
CCC1OC(=O)CC(O)C(C)C(OC2OC(C)C(OC3CC(C)(O)C(OC(=O)C(O)c4ccc(OC)cc4)C(C)O3)C(N(C)C)C2O)C(CC=O)CC(C)C(=O)C=CC(C)=CC1COC1OC(C)C(O)C(OC)C1OC [Compound B, 4"-O-[(R)-(-)-p-methoxymandeloyl]tylosin]	29.5	34	0	0	13.48	41.43	87.22	32.99 (≈ 30.5 µM)	1.56 (≈ 1.44 µM)	0.39 (≈ 0.361 µM)	0.78 (≈ 0.722 µM)	> 100	0.39 (≈ 0.361 µM)	6.25 (≈ 5.79 µM)	1.56 (≈ 1.44 µM)	–	–	–	–	–	Number of colonies 2 (mouse bone marrow cells; 1.0 μg/ml): 25; Remaining unhydrolyzed substance (%) ([1]; 60 min): 100%; minimum inhibitory concentrations (MICs) (ML-resistant strain; 2nd listed (Table 1 r6)): 0.39 µg/mL (≈ 0.361 µM); minimum inhibitory concentrations (MICs) (ML-resistant strain; 3rd listed (Table 1 r7)): 3.13 µg/mL (≈ 2.9 µM); minimum inhibitory concentrations (MICs) (ML-resistant strain; 4th listed (Table 1 r8)): < 0.20 µg/mL
CC[C@H]1OC(=O)[C@H](C)[C@@H](O[C@H]2C[C@@](C)(OC)[C@@H](O)[C@H](C)O2)[C@H](C)[C@@H](O[C@@H]2O[C@H](C)C[C@H](N(C)C)[C@H]2O)[C@](C)(O)C[C@@H](C)C(=O)[C@H](C)[C@@H](O)[C@]1(C)O [EM, erythromycin]	–	–	–	–	–	–	–	–	–	–	–	–	–	–	–	50 (≈ 68.1 µM)	> 100	> 100	> 100	> 100	MIC ([3]; Staphylococcus aureus): 0.2 µg/mL (≈ 0.273 µM); MIC ([4]; Bacillus subtilis, ATCC6633, read-out: minimum inhibitory concentrations (MICs)): 0.1 µg/mL (≈ 0.136 µM); MIC ([5]; ATCC12228, read-out: minimum inhibitory concentrations (MICs)): < 0.2 µg/mL; MIC ([6]; Staphylococcus aureus, 209P): 0.1 µg/mL (≈ 0.136 µM); MIC (ML-resistant strain; 5th listed (Table 1 r9)): > 100 µg/mL
CCCC(=O)O[C@H]1[C@H](C)O[C@@H](O[C@H]2[C@H](N(C)C)[C@@H](O)[C@H](O[C@H]3[C@@H](CC=O)C[C@@H](C)[C@@H](O)/C=C/C=C/C[C@@H](C)OC(=O)C[C@@H](O)[C@@H]3OC)O[C@@H]2C)C[C@@]1(C)OC(=O)CC [RKM, rokitamycin]	19.0	–	–	–	–	–	–	–	–	–	–	–	–	–	–	100 (≈ 121 µM)	> 100	> 100	> 100	< 0.2	Number of colonies 3 (mouse bone marrow cells; 1.0 μg/ml, count 3 (control 65)): 19; activity at 1 µg/mL (mouse bone marrow cells; [7]): 25.2%; MIC ([3]; Staphylococcus aureus Smith): 0.39 µg/mL (≈ 0.471 µM); MIC [4, 8]: 0.1 µg/mL (≈ 0.121 µM); MIC [5, 9]: < 0.2 µg/mL; MIC ([6]; Staphylococcus aureus 209P): 0.2 µg/mL (≈ 0.242 µM); MIC (ML-resistant strain; 5th listed (Table 1 r9)): > 100 µg/mL
